# Data: patent publication US12427134B2, “Methods of reducing the risk of cardiovascular events in a subject with atrial fibrillation and/or atrial flutter” (priority 2019, dated 2025)
# Values joined by “and” are separate entries in the source; they are usually repeats but may differ in a detail not shown here. Equal entries are not always repeated.
# System: hypertriglyceridemic patients with cardiovascular disease or at high risk for cardiovascular disease
# Assay: REDUCE-IT: time to first occurrence of adjudicated cardiovascular endpoint events (primary, key secondary, other secondary, tertiary; sensitivity and landmark analyses)
# Format: in vivo
# Details: for New Onset Hypertension, patients with event: non-adjudicated
# Excerpt: The following study, also referred to as the REDUCE-IT clinical trial, was a large cardiovascular (CV) outcome trial designed to assess CV risk reduction benefit of AMR101 treatment (commercially known as VASCEPA®) versus placebo on the 5-point primary composite endpoint: CV death, non-fatal stroke, non-fatal myocardial infarction (MI), coronary revascularizations, or unstable angina requiring hospitalization.
# A multi-center, prospective, randomized, double-blind, placebo-controlled, parallel-group study was performed to evaluate the effect of AMR101 (4 g per day) on cardiovascular health and mortality in hypertriglyceridemic patients with cardiovascular disease or at high risk for cardiovascular disease. The intended expanded indication of the study was treatment with AMR101 as an add-on to statin therapy to reduce the risk of cardiovascular events in patients with clinical cardiovascular disease or with multiple risk factors for cardiovascular disease.
# The primary objective of this study was, in patients at LDL-C goal while on statin therapy, with established cardiovascular disease (CVD) or at high risk for CVD, and hypertriglyceridemia (e.g., fasting triglycerides (TG) ≥200 mg/dL and <500 mg/dL), to evaluate the effect of AMR101 4 g daily on time from randomization to first occurrence of any component of the composite of the following major CV events: CV death; nonfatal MI; (including silent MI; electrocardiograms (ECGs) were performed annually for the detection of silent MIs); nonfatal stroke; coronary revascularization; and unstable angina determined to be caused by myocardial ischemia by invasive/non-invasive testing and requiring emergent hospitalization.
# The key secondary objective of this study was to evaluate the effect of AMR101 4 g daily on the time from randomization to the first occurrence of the composite of following major CV events: CV death, nonfatal MI (including silent MI), and nonfatal stroke.
# Other secondary objectives for this study were to evaluate the effect of therapy on time from randomization to the first occurrence of the following individual or composite endpoints: composite of CV death or nonfatal MI (including silent MI); fatal or nonfatal MI (including silent MI); non-elective coronary revascularization represented as the composite of emergent or urgent classifications; CV death; unstable angina determined to be caused by myocardial ischemia by invasive/non-invasive testing and requiring emergent hospitalization; fatal or nonfatal stroke; composite of total mortality, nonfatal MI (including silent MI), or nonfatal stroke; and total mortality.
# The key tertiary objectives for this study were to evaluate the effect of AMR101 4 g daily from baseline and percent change from baseline in fasting triglycerides and LDL-C. […]
# [1] = ITT population, 4 g daily, N = 4089
# [2] = ITT population, listed as Icosapent Ethyl
smiles,measurement,setting,value
"CC/C=C\C/C=C\C/C=C\C/C=C\C/C=C\CCCC(=O)OCC [AMR101, eicosapentaenoic acid ethyl ester]","Key secondary endpoint, HR","2-year landmark, ITT population",0.831
same,"Fatal or nonfatal MI, relative risk reduction",4 g per day,31%
same,"Fatal or nonfatal stroke, relative risk reduction",4 g per day,28%
same,"Hospitalization for unstable angina, relative risk reduction",4 g per day,32%
same,"Total mortality, nonfatal MI, or nonfatal stroke, relative risk reduction",4 g per day,23%
same,"Total mortality, relative risk reduction",4 g per day,13%
same,"Urgent or emergent revascularization, relative risk reduction",4 g per day,35%
same,"Non-CV deaths, patients",CEC-adjudicated,2.4%
same,"Total mortality, patients",CEC-adjudicated deaths,6.7%
same,Component contributing to key secondary endpoint (first event): CV Death,ITT population,149 (3.6) n (%)
same,Component contributing to key secondary endpoint (first event): Nonfatal MI,ITT population,230 (5.6) n (%)
same,Component contributing to key secondary endpoint (first event): Nonfatal Stroke,ITT population,80 (2.0) n (%)
same,Component contributing to primary endpoint (first event): CV Death,ITT population,137 (3.4) n (%)
same,Component contributing to primary endpoint (first event): Coronary Revascularization,ITT population,189 (4.6) n (%)
same,Component contributing to primary endpoint (first event): Hospitalization for Unstable Angina,ITT population,94 (2.3) n (%)
same,Component contributing to primary endpoint (first event): Nonfatal MI,ITT population,205 (5.0) n (%)
same,Component contributing to primary endpoint (first event): Nonfatal Stroke,ITT population,80 (2.0) n (%)
same,"Composite: CV Death, Nonfatal MI, Non-Elective Coronary Revascularization, Unstable Angina, Nonfatal Stroke, or PVD Requiring Intervention",ITT population,683 (16.7) n (%)
same,"Composite: CV Death, Nonfatal MI, Non-Elective Coronary Revascularization, Unstable Angina, Nonfatal Stroke, or PVD Requiring Intervention, HR (95% CI)",ITT population,0.77 (0.70-0.86)
same,"Composite: CV Death, Nonfatal MI, Non-Elective Coronary Revascularization, Unstable Angina, PVD Requiring Intervention, or Cardiac Arrhythmia",ITT population,741 (18.1) n (%)
same,"Composite: CV Death, Nonfatal MI, Non-Elective Coronary Revascularization, Unstable Angina, PVD Requiring Intervention, or Cardiac Arrhythmia, HR (95% CI)",ITT population,0.86 (0.78-0.94)
same,"Composite: CV Death, Nonfatal MI, Non-Elective Coronary Revascularization, or Unstable Angina",ITT population,513 (12.5) n (%)
same,"Composite: CV Death, Nonfatal MI, Non-Elective Coronary Revascularization, or Unstable Angina, HR (95% CI)",ITT population,0.76 (0.68-0.85)
same,"Composite: CV Death, Nonfatal MI, Nonfatal Stroke, Cardiac Arrhythmia, or Cardiac Arrest",ITT population,589 (14.4) n (%)
same,"Composite: CV Death, Nonfatal MI, Nonfatal Stroke, Cardiac Arrhythmia, or Cardiac Arrest, HR (95% CI)",ITT population,0.82 (0.73-0.91)
same,"Coronary Revascularization (all), HR (95% CI)",ITT population,0.66
same,"Coronary Revascularization (all), patients with event",ITT population,9.2%
same,"Fatal or nonfatal MI (including silent MI), patients with event",ITT population,6.1%
same,"Fatal or nonfatal MI, HR",ITT population,0.688
same,"Fatal or nonfatal stroke, HR",ITT population,0.720
same,"Fatal or nonfatal stroke, patients with event",ITT population,2.4%
same,"Hospitalization for unstable angina, HR",ITT population,0.679
same,"Hospitalization for unstable angina, patients with event",ITT population,2.6%
same,"Key secondary endpoint in patients with impaired glucose metabolism at baseline, HR",ITT population,0.829
same,"Key secondary endpoint in patients with impaired glucose metabolism at baseline, patients with event",ITT population,11.3%
same,"New Heart Failure (newly emergent CHF), HR (95% CI)",ITT population,0.95
same,"New Heart Failure (newly emergent CHF), patients with event",ITT population,4.1%
same,"New Onset Hypertension, HR (95% CI)",ITT population,0.86
same,"Non-elective (emergent or urgent) coronary revascularization, HR",ITT population,0.653
same,"Peripheral Artery Disease, HR (95% CI)",ITT population,0.97
same,"Peripheral Artery Disease, patients with event",ITT population,3.8%
same,"Primary endpoint in patients with diabetes at baseline, HR (95% CI)",ITT population,0.769 (0.677-0.873)
same,"Primary endpoint in patients with diabetes at baseline, patients with event",ITT population,(18.1%)
same,"Primary endpoint in patients with impaired glucose metabolism at baseline, HR (95% CI)",ITT population,0.795 (0.675-0.937)
same,"Primary endpoint in patients with metabolic syndrome at baseline, HR (95% CI)",ITT population,0.744 (0.671-0.824)
same,"Silent MI, patients with event",ITT population,0.7%
same,"Sudden Cardiac Death, HR (95% CI)",ITT population,0.69
same,Total Mortality or Newly Emergent CHF,ITT population,393 (9.6) n (%)
same,"Total Mortality or Newly Emergent CHF, HR (95% CI)",ITT population,0.90 (0.78-1.03)
same,"Total mortality, HR",ITT population,0.87
same,"Total mortality, nonfatal MI, or nonfatal stroke, HR",ITT population,0.772
same,"Key secondary composite endpoint (CV death, nonfatal MI, nonfatal stroke), patients with event",[1],459 (11.2%) n (%) and 459 (11.2) n (%)
same,"Primary composite endpoint (CV death, nonfatal MI, nonfatal stroke, coronary revascularization, hospitalization for unstable angina), patients with event",[1],705 (17.2%) n (%) and 705 (17.2) n (%)
same,"New Onset Hypertension, patients with event",ITT population,0.3%
same,"New Onset Hypertension, patients with event",[2],(0.3) %
same,"Amputation for PVD, patients with event",[2],(0.5%)
same,"Cardiac Arrest, HR (95% CI)",[2],"0.52 (0.31, 0.86)"
same,"Cardiac Arrest, patients with event",[2],(0.5%)
same,"Coronary Revascularization (all), HR (95% CI)",[2],"0.66 (0.58, 0.76)"
same,"Coronary Revascularization (all), patients with event",[2],(9.2%)
same,"Elective Revascularization, HR (95% CI)",[2],"0.68 (0.57, 0.82)"
same,"Elective Revascularization, patients with event",[2],(4.7%)
same,"Emergent Revascularization, HR (95% CI)",[2],"0.62 (0.42, 0.92)"
same,"Emergent Revascularization, patients with event",[2],(1.0%)
same,"Ischemic Stroke, HR (95% CI)",[2],"0.64 (0.49, 0.85)"
same,"Ischemic Stroke, patients with event",[2],(2.0%)
